{"source": "patent US20260276652A1", "about": "“METHODS FOR ASSESSING PLATELET FUNCTION” (UNIVERSITY OF READING, priority 2023, published 2026)", "key": {"platelets": {"test_system": "platelets", "assay": "PPAnalysis flow cytometry assay of platelet sensitivity (p-selectin exposure) to CRP-XL in patients with ischaemic heart disease", "format": "cell-based, human", "conditions": "for sensitivity to CRP-XL of patients receiving aspirin compared with aspirin-free patients: patients with ischaemic heart disease, student's t-test", "protocol": "The flow cytometry assay measured fluorescein isothiocyanate-conjugated anti-fibrinogen antibody and PE-Cy5-conjugated anti-P-selectin antibody binding following stimulation with ADP ([…]), collagen-related peptide (CRP; […]), epinephrine ([…]), thrombin receptor activator peptide 6 (TRAP-6; […]), and U46619 ([…]) using an Accuri C6 (B D, Winnersh, UK) for cohort 1 and a Beckman-Coulter EPICS Profile XL for cohort 2, as described in supplemental Section 2 of Dunster 2021 (Dunster et al. Multiparameter phenotyping of platelet reactivity for stratification of human cohorts, Blood Adv (2021) 5(20): 4017-4030).\nA Platelet Phenomic Analysis (PPAnalysis) assay was carried out described in Dunster 2021. PPAnalysis comprises a flow cytometry-based assay and bespoke software that was developed to make data analysis simple, rapid, and reproducible. The assay simultaneously measures 2 aspects of platelet activation, fibrinogen binding (a marker of αllßb3 activation) and the exposure of P-selectin on the platelet surface (a marker of a-granule secretion). The supplementary information accompanying Dunster 2021 provides step-by-step instructions for setting up and carrying out the PPAnalysis assay and data analysis."}, "platelets in whole blood": {"test_system": "platelets in whole blood", "assay": "In vitro thrombus formation on type I collagen, whole blood perfused at arterial shear rate", "format": "cell-based, human", "conditions": "patients with ischaemic heart disease, 6 minutes, 1000 s^-1, student's t-test", "method": "Thrombus formation on immobilized type I collagen was performed using the VenaFlux Platform and Vena 8Fluor+Biochips (Cellix). Channels were coated overnight at 4° C. with collagen, then blocked with 1% BSA/PBS for 1 h and replaced with PBS. Blood was collected into sodium citrate (4% w/v). Platelets in whole blood were incubated with 10 mM DiOC6 (Thermo Fisher Scientific) for 10 min. Perfusion was performed at 37° C. with an arterial shear rate of 1000 s^−1 for at least 520 seconds. Thrombus formation was visualised using a 20× magnification lens on a Nikon A1-R confocal microscope. Images were brightness corrected and converted to a binary mask with software provided auto-thresholds. Binary Mask Particles were then analysed to determine thrombus count and size."}, "[1]": {"target": "T1, glycoprotein VI (GPVI) receptor (Homo sapiens, UniProt Q9HCN6)", "T1 sequence (Q9HCN6 21-339)": "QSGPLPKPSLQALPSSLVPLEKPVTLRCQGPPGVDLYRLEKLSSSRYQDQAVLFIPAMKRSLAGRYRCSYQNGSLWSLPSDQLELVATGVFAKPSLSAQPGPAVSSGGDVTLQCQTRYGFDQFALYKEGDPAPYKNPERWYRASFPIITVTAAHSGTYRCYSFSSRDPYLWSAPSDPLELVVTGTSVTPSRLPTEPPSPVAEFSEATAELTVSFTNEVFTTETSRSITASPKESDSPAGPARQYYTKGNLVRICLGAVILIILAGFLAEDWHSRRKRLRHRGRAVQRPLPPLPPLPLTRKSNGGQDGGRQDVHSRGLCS", "T1 sequence (P30273 19-86 partner)": "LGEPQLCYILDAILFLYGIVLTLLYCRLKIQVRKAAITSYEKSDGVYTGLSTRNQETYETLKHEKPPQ", "conditions": "Smethurst et al.; cited from earlier work"}}, "note": "Entries after “also recorded” stand apart in the source; their conditions may differ.", "data": [{"compound": "CC(=O)Oc1ccccc1C(=O)O", "note": "[aspirin]", "values": [{"measurement": "sensitivity to CRP-XL of patients receiving ASA", "setting": "platelets; patients with ischaemic heart disease receiving ASA, mean ± spread, ASA free patients 7.4±0.49", "value": "7.2±0.37", "unit": "log g/mL"}, {"measurement": "sensitivity to CRP-XL of patients receiving aspirin compared with aspirin-free patients", "setting": "platelets", "value": "lower sensitivity to CRP-XL"}, {"measurement": "sensitivity to CRP-XL of patients receiving aspirin compared with aspirin-free patients", "setting": "platelets; listed as ASA", "value": "significantly lower"}, {"measurement": "in vitro thrombus volume in patients with versus without aspirin", "setting": "platelets in whole blood", "value": "not reduced; also recorded: not significantly different"}]}, {"compound": "(GPC-(GPO)10-GPCG-amide)3 [CRP-XL]", "values": [{"measurement": "platelet agonist potency compared with non-cross-linked CRP", "setting": "[1]", "value": "more potent platelet agonist"}]}]}
